Assay results published in US9957271B2, “Substituted bicyclic aza-heterocycles and analogues as sirtuin modulators” (GlaxoSmithKline, LLC, priority 2012, dated 2018).
Where two headings read alike, the source gives them in different places.

Molecular target: T1, SIRT1 (Homo sapiens, UniProt Q96EB6)
T1 sequence (Q96EB6 1-747): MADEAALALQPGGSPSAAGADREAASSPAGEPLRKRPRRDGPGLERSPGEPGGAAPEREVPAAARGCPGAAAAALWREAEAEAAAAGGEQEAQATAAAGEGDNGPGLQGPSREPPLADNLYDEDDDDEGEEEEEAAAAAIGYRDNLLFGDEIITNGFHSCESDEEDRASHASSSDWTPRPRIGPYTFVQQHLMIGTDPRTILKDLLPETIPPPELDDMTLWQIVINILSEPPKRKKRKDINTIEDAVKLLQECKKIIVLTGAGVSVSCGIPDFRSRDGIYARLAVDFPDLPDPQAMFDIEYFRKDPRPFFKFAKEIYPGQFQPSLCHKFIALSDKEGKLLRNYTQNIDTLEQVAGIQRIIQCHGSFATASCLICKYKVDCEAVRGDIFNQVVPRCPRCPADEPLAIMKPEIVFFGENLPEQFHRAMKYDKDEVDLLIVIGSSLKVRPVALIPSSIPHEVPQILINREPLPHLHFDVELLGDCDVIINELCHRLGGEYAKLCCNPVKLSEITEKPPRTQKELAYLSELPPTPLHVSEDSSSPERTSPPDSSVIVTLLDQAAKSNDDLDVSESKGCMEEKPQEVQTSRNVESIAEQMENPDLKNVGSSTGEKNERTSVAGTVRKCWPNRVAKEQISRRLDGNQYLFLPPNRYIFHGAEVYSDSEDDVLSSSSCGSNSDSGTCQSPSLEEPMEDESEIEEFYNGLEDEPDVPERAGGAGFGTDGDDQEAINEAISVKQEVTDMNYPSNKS
Experiment: TAMRA based mass spectrometry assay of SIRT1 activity
Assay type: biochemical
Conditions: for Emax: read-out: TAMRA % Fold Act
How it was run: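 Deacetylation of a biotinylated, TAMRA-tagged p53-based peptide (0.5 μM) by 10 nM His-tagged SIRT1 with 120 μM βNAD+, 25 °C for 25 min, pH 8 Tris-acetate buffer, across a compound concentration range. Quenched by formic acid and read by mass spec as product peptide or OAADPR; activity relative to DMSO reactions, nicotinamide defining maximal inhibition.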

[1] = TAMRA peptide substrate, concentration giving 150% activation of SIRT1
[2] = TAMRA peptide substrate, percent maximum fold activation
[3] = concentration of test compound giving 150% activation of SIRT1, TAMRA peptide substrate
[4] = percent maximum fold activation of SIRT1, TAMRA peptide substrate
[5] = TAMRA assay, concentration giving 150% activation of SIRT1
[6] = TAMRA assay, percent maximum fold activation

Compound: Cc1nc2ccc(-c3ccccc3C(F)(F)F)nn2c1NC(=O)c1cscn1 [Compound 404]
- TAMRA EC1.5 [1]: B (EC1.5 1-25 μM)
- Emax [2]: < 350%

Compound: O=C(Nc1cccc(CN2CCOCC2)n1)c1cnc2ccc(-c3ccc(F)c(F)c3F)nn12 [Compound 127]
- TAMRA EC1.5 (μM) [3]: B (EC1.5 1-25 μM)
- Emax [4]: < 350%

Compound: O=C(Nc1cccc(N2CCOCC2)n1)c1cnn2ccc(-c3ccccc3C(F)(F)F)nc12 [Compound 241]
- TAMRA EC1.5 (μM) [5]: A (EC1.5<1 μM)
- Emax [6]: ≥ 350%

Compound: Cc1cc(NC(=O)c2cnc3ccc(-c4ccccc4OCC(O)CO)nn23)ccn1 (centres unmarked) [Compound 370]
- TAMRA EC1.5 (μM) [5]: B (EC1.5 1-25 μM)
- Emax [6]: ≥ 350%

Compound: Cc1ccc(C(=O)Nc2cnc3ccc(-c4ccccc4C(F)(F)F)nn23)c(C)n1 [Compound 394]
- TAMRA EC1.5 (μM) [5]: B (EC1.5 1-25 μM)
- Emax [6]: < 350%

Compound: Cc1nc(C(=O)Nc2cnc3ccc(-c4ccccc4F)nn23)c(C)s1 [Compound 300]
- TAMRA EC1.5 (μM) [5]: A (EC1.5<1 μM)
- Emax [6]: < 350%

Compound: Cc1cc(NC(=O)c2cnc3c(C)cc(-c4ccccc4C(F)(F)F)nn23)cc(C)n1 [Compound 528]
- TAMRA EC1.5 [1]: A (EC1.5<1 μM)
- Emax [2]: ≥ 350%

Compound: Cc1cc(NC(=O)c2c(O)nc3ccc(-c4ccccc4C(F)(F)F)nn23)ccn1 [Compound 366]
- TAMRA EC1.5 (μM) [5]: B (EC1.5 1-25 μM)
- Emax [6]: < 350%

Compound: O=C(Nc1cnc2ccc(-c3ccccc3C(F)(F)F)nn12)c1cccc(-n2cnnc2)n1 [Compound 438]
- TAMRA EC1.5 [1]: A (EC1.5<1 μM)
- Emax [2]: ≥ 350%

Compound: COc1cc(NC(=O)c2cnc3ccc(-c4ccccc4C(F)(F)F)nn23)nc(OC)n1 [Compound 196]
- TAMRA EC1.5 (μM) [3]: A (EC1.5<1 μM)
- Emax [4]: ≥ 350%

Compound: COCCn1cc(NC(=O)c2cnc3ccc(-c4ccccc4C(F)(F)F)nn23)ccc1=O [Compound 156]
- TAMRA EC1.5 (μM) [3]: B (EC1.5 1-25 μM)
- Emax [4]: < 350%

Compound: O=C(Nc1cccc(OCC(O)CO)n1)c1cnc2ccc(-c3ccccc3C(F)(F)F)nn12 (centres unmarked) [Compound 212, N-(6-(2,3-dihydroxypropoxy)pyridin-2-yl)-6-(2-(trifluoromethyl)phenyl)imidazo[1,2-b]pyridazine-3-carboxamide]
- TAMRA EC1.5 (μM) [5]: A (EC1.5<1 μM)
- Emax [6]: ≥ 350%

Compound: Cc1cc(-c2ccccc2C(F)(F)F)nn2c(C(=O)Nc3ccnc(OC4CCOCC4)n3)cnc12 [Compound 587]
- TAMRA EC1.5 [1]: A (EC1.5<1 μM)
- Emax [2]: ≥ 350%

Compound: Cc1ccnc(NC(=O)c2c(C)nc3ccc(-c4cccc(OC[C@H](O)CO)c4)nn23)c1 [Compound 798]
- TAMRA EC1.5 (μM) [5]: A (EC1.5<1 μM)
- Emax [6]: ≥ 350%

Compound: O=C(Nc1cccc(OC[C@@H](O)CO)n1)c1cnc2ccc(-c3ccccc3C(F)(F)F)nn12 [Compound 554]
- TAMRA EC1.5 [1]: A (EC1.5<1 μM)
- Emax [2]: ≥ 350%

Compound: O=C(Nc1nc(CN2CCOCC2)cs1)c1cnc2ccc(-c3cccc(F)c3F)nn12 [Compound 48]
- TAMRA EC1.5 (μM) [3]: B (EC1.5 1-25 μM)
- Emax [4]: ≥ 350%

Compound: O=C(Nc1nccs1)c1cnc2ccc(-c3cccc(N4CCOCC4)c3)nn12 [Compound 9]
- TAMRA EC1.5 (μM) [3]: C (EC1.5>25 μM)
- Emax [4]: < 350%

Compound: Cc1cnc(C(=O)Nc2cnc3cc(C)c(-c4ccccc4C(F)(F)F)nn23)s1 [Compound 447]
- TAMRA EC1.5 [1]: A (EC1.5<1 μM)
- Emax [2]: ≥ 350%

Compound: Cc1ccc(NC(=O)c2cnn3ccc(-c4ccccc4C(F)(F)F)nc23)nn1 [Compound 655]
- TAMRA EC1.5 (μM) [5]: A (EC1.5<1 μM)
- Emax [6]: ≥ 350%

Compound: Cc1cc(C)nc(NC(=O)c2cnc3ccc(-c4ccccc4OC(F)(F)F)nn23)n1 [Compound 399]
- TAMRA EC1.5 [1]: B (EC1.5 1-25 μM)
- Emax [2]: ≥ 350%

Compound: Cc1nc(C(=O)Nc2c(C)nc3ccc(-c4ccccc4C(F)(F)F)nn23)cs1 [Compound 405]
- TAMRA EC1.5 [1]: B (EC1.5 1-25 μM)
- Emax [2]: ≥ 350%

Compound: O=C(Nc1cnc2ccc(-c3ccccc3C(F)(F)F)nn12)c1cc(O)ncn1 [Compound 705]
- TAMRA EC1.5 (μM) [5]: A (EC1.5<1 μM)
- Emax [6]: ≥ 350%

Compound: O=C(Nc1nccs1)c1cnn2ccc(-c3ccccc3C(F)(F)F)nc12 [Compound 506]
- TAMRA EC1.5 [1]: A (EC1.5<1 μM)
- Emax [2]: ≥ 350%

Compound: Cc1nc2ccc(-c3ccccc3C(F)(F)F)nn2c1C(=O)Nc1ccc(F)cn1 [Compound 465]
- TAMRA EC1.5 [1]: A (EC1.5<1 μM)
- Emax [2]: ≥ 350%

Compound: Cc1cc(-c2ccccc2C(F)(F)F)nn2c(C(=O)Nc3cnccn3)cnc12 [Compound 208]
- TAMRA EC1.5 (μM) [5]: A (EC1.5<1 μM)
- Emax [6]: ≥ 350%

Compound: O=C(Nc1ccncc1)c1cnn2ccc(-c3ccccc3C(F)(F)F)nc12 [Compound 240, N-(pyridin-4-yl)-5-(2-(trifluoromethyl)phenyl)pyrazolo[1,5-a]pyrimidine-3-carboxamide]
- TAMRA EC1.5 (μM) [5]: A (EC1.5<1 μM)
- Emax [6]: ≥ 350%

Compound: Cc1cc(OCC2(C)COC2)nc(NC(=O)c2cnc3ccc(-c4ccccc4C(F)(F)F)nn23)n1 [Compound 277]
- TAMRA EC1.5 (μM) [5]: A (EC1.5<1 μM)
- Emax [6]: ≥ 350%

Compound: O=C(Nc1cnn2ccc(-c3ccccc3C(F)(F)F)nc12)c1cnccn1 [Compound 253]
- TAMRA EC1.5 (μM) [5]: B (EC1.5 1-25 μM)
- Emax [6]: ≥ 350%

Compound: O=C(Nc1nc(CN2CCOCC2)cs1)c1cnc2ccc(-c3ccc(F)cc3F)nn12 [Compound 42]
- TAMRA EC1.5 (μM) [3]: B (EC1.5 1-25 μM)
- Emax [4]: < 350%

Compound: COc1ccc(NC(=O)c2c(C)nc3ccc(-c4ccccc4Br)nn23)nn1 [Compound 765]
- TAMRA EC1.5 (μM) [5]: A (EC1.5<1 μM)
- Emax [6]: ≥ 350%

Compound: CC1(COc2cccc(NC(=O)c3cnc4ccc(-c5ccccc5C(F)(F)F)nn34)n2)COC1 [Compound 295]
- TAMRA EC1.5 (μM) [5]: A (EC1.5<1 μM)
- Emax [6]: ≥ 350%

Compound: COc1cc(NC(=O)c2c(C)nc3ccc(-c4ccccc4C(F)(F)F)nn23)ncn1 [Compound 602]
- TAMRA EC1.5 (μM) [5]: A (EC1.5<1 μM)
- Emax [6]: ≥ 350%

Compound: Cc1nc(C(=O)Nc2cnc3ccc(-c4ccccc4F)nn23)cs1 [Compound 299]
- TAMRA EC1.5 (μM) [5]: B (EC1.5 1-25 μM)
- Emax [6]: < 350%

Compound: COc1cccc(C(=O)Nc2cnn3ccc(-c4ccccc4OC(F)(F)F)nc23)n1 [Compound 751]
- TAMRA EC1.5 (μM) [5]: A (EC1.5<1 μM)
- Emax [6]: ≥ 350%

Compound: O=C(Nc1cnc2ccc(-c3ccccc3C(F)(F)F)nn12)c1cccc(CN2CCCC2)n1 [Compound 145]
- TAMRA EC1.5 (μM) [3]: A (EC1.5<1 μM)
- Emax [4]: ≥ 350%

Compound: O=C(Nc1ccnc(N2CCOCC2)c1)c1cnc2ccc(-c3ccccc3C(F)(F)F)nn12 [Compound 24]
- TAMRA EC1.5 (μM) [3]: B (EC1.5 1-25 μM)
- Emax [4]: ≥ 350%

Compound: Cc1cc(C)nc(C(=O)Nc2cnn3ccc(-c4ccccc4OC(F)(F)F)nc23)c1 [Compound 750]
- TAMRA EC1.5 (μM) [5]: A (EC1.5<1 μM)
- Emax [6]: ≥ 350%

Compound: Cc1cc(-c2ccccc2C(F)(F)F)nn2c(NC(=O)c3cnccn3)cnc12 [Compound 408]
- TAMRA EC1.5 [1]: A (EC1.5<1 μM)
- Emax [2]: ≥ 350%

Compound: Cc1cc(C)nc(NC(=O)c2c(C)nc3ccc(-c4ccccc4OC[C@H](O)CO)nn23)c1 [Compound 757]
- TAMRA EC1.5 (μM) [5]: B (EC1.5 1-25 μM)
- Emax [6]: ≥ 350%

Compound: Cc1ccc(NC(=O)c2c(C)nc3ccc(-c4ccccc4Br)nn23)nn1 [Compound 764]
- TAMRA EC1.5 (μM) [5]: A (EC1.5<1 μM)
- Emax [6]: ≥ 350%

Compound: Cc1ccc(NC(=O)c2c(C)nn3ccc(-c4ccccc4C(F)(F)F)nc23)nc1 [Compound 684]
- TAMRA EC1.5 (μM) [5]: A (EC1.5<1 μM)
- Emax [6]: ≥ 350%

Compound: Cc1ccc(NC(=O)c2cnn3ccc(-c4ccccc4C(F)(F)F)nc23)c(C)n1 [Compound 641]
- TAMRA EC1.5 (μM) [5]: B (EC1.5 1-25 μM)
- Emax [6]: ≥ 350%

Compound: Cc1cnc(NC(=O)c2c(C)nn3ccc(-c4ccccc4C(F)(F)F)nc23)s1 [Compound 652]
- TAMRA EC1.5 (μM) [5]: A (EC1.5<1 μM)
- Emax [6]: ≥ 350%

Compound: O=C(Nc1ccnc(OCC(O)CO)c1)c1cnc2ccc(-c3ccccc3C(F)(F)F)nn12 (centres unmarked) [Compound 89]
- TAMRA EC1.5 (μM) [3]: A (EC1.5<1 μM)
- Emax [4]: ≥ 350%

Compound: O=C(Nc1cccc(CN2CC[C@@H](F)C2)n1)c1cnc2ccc(-c3ccccc3C(F)(F)F)nn12 [Compound 390]
- TAMRA EC1.5 (μM) [5]: A (EC1.5<1 μM)
- Emax [6]: ≥ 350%

Compound: Cc1cc(NC(=O)c2cnn3ccc(-c4ccccc4C(F)(F)F)nc23)ccn1 [Compound 619]
- TAMRA EC1.5 (μM) [5]: A (EC1.5<1 μM)
- Emax [6]: ≥ 350%

Compound: O=C(Nc1cnc2ccc(-c3ccccc3OC(F)(F)F)nn12)c1cscn1 [Compound 316]
- TAMRA EC1.5 (μM) [5]: A (EC1.5<1 μM)
- Emax [6]: ≥ 350%

Compound: O=C(Nc1ncco1)c1cnc2ccc(-c3ccccc3C(F)(F)F)nn12 [Compound 114]
- TAMRA EC1.5 (μM) [3]: B (EC1.5 1-25 μM)
- Emax [4]: < 350%

Compound: O=C(Nc1cnc2ccc(-c3ccccc3C(F)(F)F)nn12)c1ccncn1 [Compound 90]
- TAMRA EC1.5 (μM) [3]: A (EC1.5<1 μM)
- Emax [4]: ≥ 350%
